Laboratory results taken from patent US20260176265A1 (Cancer Research Technology Limited, priority 2022, published 2026).

Key:
[1] = target: T1, Phospho-EGFR (Tyr1068) in H1975 C797S cells (Homo sapiens, UniProt P00533, C797S/L858R/T790M); test: HTRF pEGFR/total EGFR assay in H1975 C797S cells; type: cell-based; conditions: H1975 C797S cells (CRISPR), compound 3 hours, ratio pEGFR/total EGFR
T1 construct: endogenous in cells; host or cells: H1975 C797S (CRISPR-edited in house from ATCC CRL-5908)
T1 sequence (P00533 25-1210 T790M/C797S/L858R): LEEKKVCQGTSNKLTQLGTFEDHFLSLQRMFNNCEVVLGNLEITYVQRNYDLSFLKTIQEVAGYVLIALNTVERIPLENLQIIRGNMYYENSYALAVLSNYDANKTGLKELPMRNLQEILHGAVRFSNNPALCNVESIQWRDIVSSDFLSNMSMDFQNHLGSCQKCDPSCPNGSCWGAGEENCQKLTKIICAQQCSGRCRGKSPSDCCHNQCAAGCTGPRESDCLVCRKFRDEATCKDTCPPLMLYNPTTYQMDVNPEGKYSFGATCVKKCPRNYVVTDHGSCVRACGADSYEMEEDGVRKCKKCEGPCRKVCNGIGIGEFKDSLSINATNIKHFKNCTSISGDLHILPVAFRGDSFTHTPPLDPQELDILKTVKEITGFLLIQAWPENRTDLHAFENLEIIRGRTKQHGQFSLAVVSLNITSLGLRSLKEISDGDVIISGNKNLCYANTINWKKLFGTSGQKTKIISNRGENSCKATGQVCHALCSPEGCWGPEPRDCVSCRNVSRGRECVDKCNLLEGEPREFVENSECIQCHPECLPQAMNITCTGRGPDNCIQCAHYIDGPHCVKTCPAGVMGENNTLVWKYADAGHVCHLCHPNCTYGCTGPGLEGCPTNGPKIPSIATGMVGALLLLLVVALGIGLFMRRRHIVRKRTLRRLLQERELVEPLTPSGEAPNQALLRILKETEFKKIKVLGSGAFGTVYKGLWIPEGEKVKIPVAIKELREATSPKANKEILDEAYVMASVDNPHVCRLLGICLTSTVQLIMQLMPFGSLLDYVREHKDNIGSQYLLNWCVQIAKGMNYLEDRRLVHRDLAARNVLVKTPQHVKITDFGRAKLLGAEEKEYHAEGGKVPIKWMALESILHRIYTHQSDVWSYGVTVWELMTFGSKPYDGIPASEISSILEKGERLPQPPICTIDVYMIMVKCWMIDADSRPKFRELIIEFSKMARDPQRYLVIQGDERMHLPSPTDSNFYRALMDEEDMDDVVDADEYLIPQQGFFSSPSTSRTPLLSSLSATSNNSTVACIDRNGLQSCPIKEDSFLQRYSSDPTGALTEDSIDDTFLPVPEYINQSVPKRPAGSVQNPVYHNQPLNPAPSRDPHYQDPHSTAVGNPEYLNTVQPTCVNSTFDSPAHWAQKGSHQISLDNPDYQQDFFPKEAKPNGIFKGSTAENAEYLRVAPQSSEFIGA
Description: H1975 C797S cells (ATCC CRL-5908) were genetically engineered by CRISPR editing of EGFR C797S in house and validated by NGS. Cells were plated at 20,000 cells per well in 96 well plates and placed at 37° C. 5% CO2. Once adhered (after 24h) cells were treated with compounds dissolved in DMSO at a final concentration of 0.1% DMSO in media. Compounds were diluted in media then added to cells for 3 hours in duplicate. Compound and media were removed from the cells, then 50 ul of HTRF lysis buffer was added (lysis buffer was diluted from 4× stock to 1× in DI water, with 1% blocking agent also added). Cells were lysed on a plate shaker (2000 rpm) for 30 minutes at room temperature. pEGFR expression was monitored using the Cisbio Phospho-EGFR (Tyr1068) cellular kit (64EG1PEH). Total EGFR expression was monitored using the Cisbio Total EGFR cellular kit (64NG1PEH) as per manufacturer's instructions. Fluorescence emission was read at two different wavelengths (665 nm and 620 nm) on a PheraStar. Results were calculated as ratio of pEGFR/total EGFR and then percentage of 0 uM control.

[2] = target: CtermHisTag-mEGFR Wild type (Homo sapiens, UniProt P00533); test: TR-FRET probe displacement assay, EGFR wild type; type: binding; conditions: EGFR wild type 1.25 nM, probe 100 nM, 30 mins room temperature
Description: (§1) Compounds (dissolved to 100 mM in DMSO) were dispensed into black low volume 384 well assay plates (Corning) over a final concentration range of 100000, 30000, 10000, 3000, 1000, 300, 100, 30, 10, and 3 nM using an Echo 550 (Labcyte). Positive control compound and DMSO as a negative control were dispensed into the first and last well, respectively. […]. Plates were read using a PheraStar FS (BMG Labtech) at Ex337 nm Ex490/520 nm. The data were analysed using Graphpad Prism/Dotmatics Studies Software. Assays conducted in technical replicate and repeated as a biological duplicate.

[3] = target: CtermHisTag-mEGFR Triple Mutant - C797S, L858R, T790M (Homo sapiens, UniProt P00533, C797S/L858R/T790M); test: TR-FRET probe displacement assay, EGFR triple mutant; type: binding; conditions: T790M 1.25 nM, probe 100 nM, 30 mins room temperature
CtermHisTag-mEGFR Triple Mutant - C797S, L858R, T790M, sequence (P00533 25-1210 T790M/C797S/L858R): as above
Description: as §1

[4] = target: T2, Phospho-EGFR (Tyr1068) in H1975 cells (Homo sapiens, UniProt P00533, L858R/T790M); test: HTRF pEGFR/total EGFR assay in H1975 cells; type: cell-based; conditions: compound 3 hours, ratio pEGFR/total EGFR
T2 construct: host or cells: H1975
T2 sequence (P00533 25-1210 T790M/L858R): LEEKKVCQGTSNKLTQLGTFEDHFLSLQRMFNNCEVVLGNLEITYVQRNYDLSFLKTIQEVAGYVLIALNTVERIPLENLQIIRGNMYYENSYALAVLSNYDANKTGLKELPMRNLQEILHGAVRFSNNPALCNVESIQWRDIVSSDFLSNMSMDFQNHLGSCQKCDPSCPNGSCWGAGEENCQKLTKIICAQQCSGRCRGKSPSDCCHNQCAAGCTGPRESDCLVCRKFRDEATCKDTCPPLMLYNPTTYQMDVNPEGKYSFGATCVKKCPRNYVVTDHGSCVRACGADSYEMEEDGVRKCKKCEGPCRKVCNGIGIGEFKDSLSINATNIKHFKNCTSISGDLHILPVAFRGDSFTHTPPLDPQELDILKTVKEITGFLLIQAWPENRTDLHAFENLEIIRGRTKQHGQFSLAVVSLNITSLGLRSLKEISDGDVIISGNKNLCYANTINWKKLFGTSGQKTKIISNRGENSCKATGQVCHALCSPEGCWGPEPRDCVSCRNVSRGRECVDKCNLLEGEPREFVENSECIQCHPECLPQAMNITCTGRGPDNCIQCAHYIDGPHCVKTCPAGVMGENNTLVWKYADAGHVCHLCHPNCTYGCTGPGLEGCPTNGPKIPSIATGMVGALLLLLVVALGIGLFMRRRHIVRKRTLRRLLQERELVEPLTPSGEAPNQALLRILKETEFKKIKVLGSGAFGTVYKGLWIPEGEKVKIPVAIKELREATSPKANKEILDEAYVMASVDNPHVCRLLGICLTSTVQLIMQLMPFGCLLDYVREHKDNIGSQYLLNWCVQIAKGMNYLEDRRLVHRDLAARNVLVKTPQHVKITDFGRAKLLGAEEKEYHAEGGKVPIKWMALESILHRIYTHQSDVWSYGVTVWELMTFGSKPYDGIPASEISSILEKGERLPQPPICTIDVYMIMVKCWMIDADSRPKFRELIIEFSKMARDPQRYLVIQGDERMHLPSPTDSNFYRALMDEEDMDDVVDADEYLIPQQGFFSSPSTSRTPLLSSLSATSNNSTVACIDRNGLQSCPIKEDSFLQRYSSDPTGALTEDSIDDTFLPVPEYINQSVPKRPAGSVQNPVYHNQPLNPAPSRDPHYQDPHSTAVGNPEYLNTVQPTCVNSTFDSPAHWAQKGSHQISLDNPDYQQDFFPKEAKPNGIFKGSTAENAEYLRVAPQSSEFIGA
Description: H1975 cells (ATCC CRL-5908) were plated at 20,000 cells per well in 96 well plates and placed at 37° C. 5% CO2. Once adhered (after 24h) cells were treated with compounds dissolved in DMSO at a final concentration of 0.1% DMSO in media. Compounds were diluted in media then added to cells for 3 hours in duplicate. Compound and media were removed from the cells, then 50ul of HTRF lysis buffer is added (lysis buffer was diluted from 4× stock to 1× in DI water, with 1% blocking agent also added). Cells were lysed on a plate shaker (2000 rpm) for 30 minutes at room temperature. pEGFR expression was monitored using the Cisbio Phospho-EGFR (Tyri068) cellular kit (64EG1 PEH). Total EGFR expression was monitored using the Cisbio Total EGFR cellular kit (64NG1 PEH) as per manufacturer's instructions. Fluorescence emission was read at two different wavelengths (665 nm and 620 nm) on a PheraStar. Results were calculated as ratio of pEGFR/total EGFR and then percentage of 0 uM control.

[5] = target: T3, Phospho-EGFR (Tyr1068) in A431 cells (Homo sapiens, UniProt P00533); test: HTRF pEGFR/total EGFR assay in A431 cells (EGF stimulated); type: cell-based; conditions: compound 2.5 hours then 100 ng/ml EGF 30 mins, ratio pEGFR/total EGFR
T3 construct: endogenous in cells; host or cells: A431
T3 sequence (P00533 25-1210): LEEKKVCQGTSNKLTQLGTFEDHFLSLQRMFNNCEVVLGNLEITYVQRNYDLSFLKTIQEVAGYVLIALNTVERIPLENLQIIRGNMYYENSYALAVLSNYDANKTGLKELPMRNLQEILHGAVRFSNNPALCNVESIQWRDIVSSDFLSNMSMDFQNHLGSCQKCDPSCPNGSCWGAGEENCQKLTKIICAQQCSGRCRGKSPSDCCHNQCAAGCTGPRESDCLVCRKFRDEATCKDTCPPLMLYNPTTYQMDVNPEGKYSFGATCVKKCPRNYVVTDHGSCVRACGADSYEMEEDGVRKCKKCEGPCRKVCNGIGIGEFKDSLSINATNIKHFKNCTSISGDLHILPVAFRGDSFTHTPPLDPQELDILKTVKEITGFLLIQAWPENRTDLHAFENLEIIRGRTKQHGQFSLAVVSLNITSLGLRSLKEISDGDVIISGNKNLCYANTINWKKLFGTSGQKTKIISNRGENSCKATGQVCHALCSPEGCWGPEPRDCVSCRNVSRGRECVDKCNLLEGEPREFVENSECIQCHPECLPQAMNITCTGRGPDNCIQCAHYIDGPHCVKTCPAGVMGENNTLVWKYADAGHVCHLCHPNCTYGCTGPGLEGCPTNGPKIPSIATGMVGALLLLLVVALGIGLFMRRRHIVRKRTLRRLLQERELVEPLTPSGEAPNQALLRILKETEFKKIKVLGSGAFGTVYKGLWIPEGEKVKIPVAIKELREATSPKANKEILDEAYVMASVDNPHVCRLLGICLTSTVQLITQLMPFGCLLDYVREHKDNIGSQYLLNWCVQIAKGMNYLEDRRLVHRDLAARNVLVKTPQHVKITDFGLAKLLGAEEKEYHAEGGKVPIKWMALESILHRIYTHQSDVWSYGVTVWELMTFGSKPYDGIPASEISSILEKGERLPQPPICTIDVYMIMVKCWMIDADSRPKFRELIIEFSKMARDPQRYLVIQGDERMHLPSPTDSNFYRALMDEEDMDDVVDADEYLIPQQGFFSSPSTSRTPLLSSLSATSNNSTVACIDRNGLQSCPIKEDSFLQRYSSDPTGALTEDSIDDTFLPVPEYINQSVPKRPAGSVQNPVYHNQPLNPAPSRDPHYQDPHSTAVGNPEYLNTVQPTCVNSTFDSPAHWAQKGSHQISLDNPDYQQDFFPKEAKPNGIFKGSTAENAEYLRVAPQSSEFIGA
Description: Cells were plated at 20,000 cells per well in 96 well plates and placed at 37° C. 5% CO2. Once adhered (after 24h) cells were treated with compounds dissolved in DMSO at a final concentration of 0.1% DMSO in media. Compounds were diluted in media then added to cells for 2.5 hours in duplicate, 100 ng/ml EGF (ThermoFisher, PHG0311 was is added to all compound treated cells as well as a control for 30 mins. Compound and media were removed from the cells, then 50ul of HTRF lysis bufferwas added (lysis bufferwas diluted from 4× stock to 1× in DI water, with 1% blocking agent also added). Cells were lysed on a plate shaker (2000 rpm) for 30 minutes at room temperature. pEGFR expression was monitored using the Cisbio Phospho-EGFR (Tyr1068) cellular kit (64EG1PEH). Total EGFR expression was monitored using the Cisbio Total EGFR cellular kit (64NG1PEH) as per manufacturer's instructions. Fluorescence emission was read at two different wavelengths (665 nm and 620 nm) on a PheraStar. Results were calculated as ratio of pEGFR/total EGFR and then percentage of OuM control.

IC50 [1] | IC50 [2] | IC50 [3] | IC50 [4] | IC50 [5] | SMILES
> 3 µM | > 10 µM | 0.1 to 1 µM | > 3 µM | > 3 µM | C#Cc1cc(OCc2ccccc2)nc2nc(Nc3ccc(N4CCN(C)CC4)cc3)ncc12 [Example 20, 7-(benzyloxy)-5-ethynyl-N-[4-(4-methylpiperazin-1-yl)phenyl]pyrido[2,3-d]pyrimidin-2-amine]
> 3 µM | > 10 µM | 0.1 to 1 µM | > 3 µM | > 3 µM | C#Cc1cc(OCCc2ccccc2)nc2nc(Nc3ccc(N4CCN(C)CC4)cc3)ncc12 [Example 21, 5-ethynyl-N-[4-(4-methylpiperazin-1-yl)phenyl]-7-(2-phenylethoxy)pyrido[2,3-d]pyrimidin-2-amine]
> 3 µM | > 10 µM | 0.1 to 1 µM | > 3 µM | > 3 µM | C#Cc1cc(OCCCc2ccccc2)nc2nc(Nc3ccc(N4CCN(C)CC4)cc3)ncc12 [Example 22, 5-ethynyl-N-[4-(4-methylpiperazin-1-yl)phenyl]-7-(3-phenylpropoxy)pyrido[2,3-d]pyrimidin-2-amine]
> 3 µM | > 10 µM | 0.1 to 1 µM | > 3 µM | > 3 µM | C#Cc1c(C)c(OCC2CCCC2)nc2nc(Nc3ccc(N4CCN(C)CC4)cc3)ncc12 [Example 23, 7-(cyclopentylmethoxy)-5-ethynyl-6-methyl-N-[4-(4-methylpiperazin-1-yl)phenyl]pyrido[2,3-d]pyrimidin-2-amine]
> 3 µM | > 10 µM | 1 to 50 µM | > 3 µM | > 3 µM | C#Cc1cc(N(C)C)nc2nc(Nc3ccc(N(C)CCN(C)C)cc3)ncc12 [Example 24, N^2-(4-{[2-(dimethylamino)ethyl](methyl)amino}phenyl)-5-ethynyl-N^7,N^7-dimethylpyrido[2,3-d]pyrimidine-2,7-diamine]
> 3 µM | > 10 µM | 1 to 50 µM | > 3 µM | > 3 µM | C#Cc1cc(Nc2ccccc2)nc2nc(Nc3ccc(N(C)CCN(C)C)cc3)ncc12 [Example 25, N^2-(4-{[2-(dimethylamino)ethyl](methyl)amino}phenyl)-5-ethynyl-N^7-phenylpyrido[2,3-d]pyrimidine-2,7-diamine]
1 to 3 µM | 1 to 10 µM | 0.02 to 0.1 µM | 0.5 to 1 µM | > 3 µM | C#Cc1cc(Nc2nccn2C)nc2nc(Nc3ccc(N4CCN(C)CC4)cc3)ncc12 [Example 26, 5-ethynyl-N^7-(1-methylmidazol-2-yl)-N^2-[4-(4-methylpiperazin-1-yl)phenyl]pyrido[2,3-d]pyrimidine-2,7-diamine]
> 3 µM | < 1 µM | 0.02 to 0.1 µM | 1 to 3 µM | > 3 µM | C#Cc1cc(Nc2nccn2C2CCCC2)nc2nc(Nc3ccc(N4CCN(C)CC4)cc3)ncc12 [Example 27, N^7-(1-cyclopentylmidazol-2-yl)-5-ethynyl-N^2-[4-(4-methylpiperazin-1-yl)phenyl]pyrido[2,3-d]pyrimidine-2,7-diamine]
> 3 µM | > 10 µM | < 0.02 µM | > 3 µM | > 3 µM | C#Cc1cc(NC(C)=O)nc2nc(Nc3ccc(N(C)CCN(C)C)cc3)ncc12 [Example 28]
> 3 µM | 1 to 10 µM | 0.02 to 0.1 µM | > 3 µM | > 3 µM | C#Cc1cc(NC(=O)c2ccccc2)nc2nc(Nc3ccc(N4CCN(C)CC4)cc3)ncc12 [Example 29, N-(5-ethynyl-2-{[4-(4-methylpiperazin-1-yl)phenyl]amino}pyrido[2,3-d]pyrimidin-7-yl)benzamide]
1 to 3 µM | 1 to 10 µM | < 0.02 µM | 1 to 3 µM | > 3 µM | C#Cc1cc(NC(=O)Cc2ccccc2)nc2nc(Nc3ccc(N4CCN(C)CC4)cc3)ncc12 [Example 30, N-(5-ethynyl-2-{[4-(4-methylpiperazin-1-yl)phenyl]amino}pyrido[2,3-d]pyrimidin-7-yl)-2-phenylacetamide]
1 to 3 µM | 1 to 10 µM | < 0.02 µM | 1 to 3 µM | > 3 µM | C#Cc1cc(N2CCCC2=O)nc2nc(Nc3ccc(N4CCN(C)CC4)cc3)ncc12 [Example 31, 1-(5-ethynyl-2-{[4-(4-methylpiperazin-1-yl)phenyl]amino}pyrido[2,3-d]pyrimidin-7-yl)pyrrolidin-2-one]
1 to 3 µM | 1 to 10 µM | < 0.02 µM | 1 to 3 µM | > 3 µM | C#Cc1cc(NC(=O)CCc2ccccc2)nc2nc(Nc3ccc(N4CCN(C)CC4)cc3)ncc12 [Example 32, N-(5-ethynyl-2-{[4-(4-methylpiperazin-1-yl)phenyl]amino}pyrido[2,3-d]pyrimidin-7-yl)-3-phenylpropanamide]
> 3 µM | > 10 µM | 0.02 to 0.1 µM | > 3 µM | > 3 µM | C#Cc1cc(NS(C)(=O)=O)nc2c1=CNC(Nc1ccc(N(C)CCN(C)C)cc1)N=2 (stereo not drawn) [Example 33]
1 to 3 µM | 1 to 10 µM | < 0.02 µM | > 3 µM | > 3 µM | C#Cc1cc(-n2cc(C)cn2)nc2nc(Nc3ccc(N(C)CCN(C)C)cc3)ncc12 [Example 34, N^1-[2-(dimethylamino)ethyl]-N^4-[5-ethynyl-7-(4-methylpyrazol-1-yl)pyrido[2,3-d]pyrimidin-2-yl]-N^1-methylbenzene-1,4-diamine]
> 3 µM | < 1 µM | < 0.02 µM | 1 to 3 µM | > 3 µM | C#Cc1cc(-n2ccnc2)nc2nc(Nc3ccc(N4CCN(C)CC4)cc3)ncc12 [Example 35, 5-ethynyl-7-(imidazol-1-yl)-N-[4-(4-methylpiperazin-1-yl)phenyl]pyrido[2,3-d]pyrimidin-2-amine]
> 3 µM | 1 to 10 µM | < 0.02 µM | 1 to 3 µM | > 3 µM | C#Cc1cc(-n2cccc2)nc2nc(Nc3ccc(N4CCN(C)CC4)cc3)ncc12 [Example 36, 5-ethynyl-N-[4-(4-methylpiperazin-1-yl)phenyl]-7-(pyrrol-1-yl)pyrido[2,3-d]pyrimidin-2-amine]

SMILES | IC50 [1] | IC50 [2] | IC50 [3] | IC50 [4] | IC50 [5]
C#Cc1cc(OC2CCC2)nc2nc(Nc3ccc(N4CCN(C)CC4)cc3)ncc12 [Example 18, 7-cyclobutoxy-5-ethynyl-N-[4-(4-methylpiperazin-1-yl)phenyl]pyrido[2,3-d]pyrimidin-2-amine] | > 3 µM | > 10 µM | 0.02 to 0.1 µM | > 3 µM | > 3 µM
